# Source: patent US9096548B2, “Pyrazine amide compounds” (Boehringer Ingelheim International GmbH, priority 2013, dated 2015)
# Where two headings read alike, the source gives them in different places.
# Molecular target: T1, ENaC (Epithelial Sodium Channel) (Mus musculus, UniProt Q61180+Q9WU38+Q9WU39)
# T1 construct: Mouse kidney M−1 cells were cultivated in DMEM; endogenous in cells; host or cells: Mouse kidney M-1 cells, cultivated with dexamethasone on transwell filters
# T1 sequence (Q61180 1-699): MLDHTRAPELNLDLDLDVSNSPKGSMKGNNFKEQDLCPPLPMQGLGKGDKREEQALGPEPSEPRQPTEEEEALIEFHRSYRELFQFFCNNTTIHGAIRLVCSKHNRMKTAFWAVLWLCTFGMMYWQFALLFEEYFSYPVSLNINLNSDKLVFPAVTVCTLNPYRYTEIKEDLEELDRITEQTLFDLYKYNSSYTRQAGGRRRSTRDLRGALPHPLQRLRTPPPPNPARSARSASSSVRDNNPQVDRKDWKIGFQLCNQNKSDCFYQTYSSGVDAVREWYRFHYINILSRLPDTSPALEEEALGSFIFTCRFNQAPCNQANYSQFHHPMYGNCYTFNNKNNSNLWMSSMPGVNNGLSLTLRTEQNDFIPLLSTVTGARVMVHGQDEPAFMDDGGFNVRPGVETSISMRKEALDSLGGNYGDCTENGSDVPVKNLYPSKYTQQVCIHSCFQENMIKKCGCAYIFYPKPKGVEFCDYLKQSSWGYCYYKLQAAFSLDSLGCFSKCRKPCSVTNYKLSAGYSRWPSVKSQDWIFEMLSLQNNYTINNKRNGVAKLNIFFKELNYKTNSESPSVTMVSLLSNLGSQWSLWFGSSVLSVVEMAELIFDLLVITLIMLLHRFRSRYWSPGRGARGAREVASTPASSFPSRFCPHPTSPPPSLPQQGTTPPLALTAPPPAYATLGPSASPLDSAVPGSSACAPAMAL
# T1 sequence (Q9WU38 1-638): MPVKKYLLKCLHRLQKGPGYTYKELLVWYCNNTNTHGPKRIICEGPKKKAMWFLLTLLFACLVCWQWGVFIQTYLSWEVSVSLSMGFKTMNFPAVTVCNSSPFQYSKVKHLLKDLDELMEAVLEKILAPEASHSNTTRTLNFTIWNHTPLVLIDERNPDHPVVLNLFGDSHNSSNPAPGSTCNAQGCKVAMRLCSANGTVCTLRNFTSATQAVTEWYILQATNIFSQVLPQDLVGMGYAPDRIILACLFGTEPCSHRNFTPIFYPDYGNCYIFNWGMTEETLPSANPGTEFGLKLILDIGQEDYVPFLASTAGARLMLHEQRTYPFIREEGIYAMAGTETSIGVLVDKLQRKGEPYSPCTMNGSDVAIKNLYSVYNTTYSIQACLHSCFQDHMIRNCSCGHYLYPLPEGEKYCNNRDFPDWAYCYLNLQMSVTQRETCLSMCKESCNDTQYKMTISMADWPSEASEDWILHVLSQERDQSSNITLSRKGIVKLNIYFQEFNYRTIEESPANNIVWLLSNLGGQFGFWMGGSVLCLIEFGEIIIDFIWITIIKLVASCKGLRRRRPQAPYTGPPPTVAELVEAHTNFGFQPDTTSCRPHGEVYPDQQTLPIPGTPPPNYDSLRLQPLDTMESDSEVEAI
# T1 sequence (Q9WU39 1-655): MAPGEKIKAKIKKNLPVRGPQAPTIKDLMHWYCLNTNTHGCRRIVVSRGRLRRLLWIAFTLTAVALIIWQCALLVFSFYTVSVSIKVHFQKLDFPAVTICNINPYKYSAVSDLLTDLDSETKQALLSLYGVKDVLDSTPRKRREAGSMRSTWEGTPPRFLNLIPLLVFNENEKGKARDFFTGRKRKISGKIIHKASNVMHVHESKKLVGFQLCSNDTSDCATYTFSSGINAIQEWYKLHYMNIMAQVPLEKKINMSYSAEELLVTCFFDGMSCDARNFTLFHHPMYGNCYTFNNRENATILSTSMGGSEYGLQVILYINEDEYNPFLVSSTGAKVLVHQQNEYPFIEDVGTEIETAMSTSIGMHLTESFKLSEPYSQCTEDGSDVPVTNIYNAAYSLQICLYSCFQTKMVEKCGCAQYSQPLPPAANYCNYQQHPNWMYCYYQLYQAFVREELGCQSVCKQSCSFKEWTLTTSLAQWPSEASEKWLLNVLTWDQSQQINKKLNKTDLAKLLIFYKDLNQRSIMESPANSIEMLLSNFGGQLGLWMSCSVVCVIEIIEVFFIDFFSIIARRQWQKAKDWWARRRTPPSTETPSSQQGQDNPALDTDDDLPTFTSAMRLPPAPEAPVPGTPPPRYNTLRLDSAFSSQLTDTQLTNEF
# Test: Ussing Chamber assay (short circuit current, amiloride sensitive I_SC)
# Format: cell-based
# Conditions: Ussing chamber, mouse kidney M-1 cells, short circuit current, read-out: IC50
# Summary of the method: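 Mouse kidney M-1 cells grown 10–12 days on filters with 5 μM dexamethasone, measured in Caco-2 transport buffer at 37° C under voltage clamp. Compound applied apically at 3 μM or 1-3-10 μM; 3 μM amiloride added at end. Short circuit current inhibition given as percent of amiloride effect or IC50.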
# [1] = compound added to the apical solution
# [2] = value printed in the example text with μM
IC50 [1],Compound,further results
0.121 µM,Nc1nc(N)c(C(=O)N[C@H]2CCC[N+](CCCc3ccc(OCC(=O)N(CCO)CCO)cc3)(CCCc3ccc(OCC(=O)N(CCO)CCO)cc3)C2)nc1Cl [Example 6.66],–
–,"COc1ccc(CCC[N+]2(CC(=O)O)CCCC(NC(=O)c3nc(Cl)c(N)nc3N)C2)cc1 (centres unmarked) [Example 13, 1-Carboxymethyl-3-[(3,5-diamino-6-chloro-pyrazine-2-carbonyl)-amino]-1-[3-(4-methoxy-phenyl)propyl]-piperidinium chloride]",IC50 [2]: > 1 µM
0.039 µM,C[S+]([O-])CCNC(=O)COc1ccc(CCC[N+]2(CCCc3ccc(OCC(=O)NCC[S+](C)[O-])cc3)CCC[C@H](NC(=O)c3nc(Cl)c(N)nc3N)C2)cc1 (some centres unmarked) [Example 6.45],–
0.06 µM,COc1ccc(CCC[N+]2(CCc3ccccc3)CCCC(NC(=O)c3nc(Cl)c(N)nc3N)C2)cc1 (centres unmarked) [Example 3.6],–
0.134 µM,CN(C)C(=O)COc1ccc(CCC[N+]2(CCCc3ccc(OCC(=O)N(C)C)cc3)CCC[C@H](NC(=O)c3nc(Cl)c(N)nc3N)C2)cc1 [Example 6.12],–
0.14 µM,"Nc1nc(N)c(C(=O)NC2CCC[N+](CCc3c[nH]c4ccccc34)(CCc3c[nH]c4ccccc34)C2)nc1Cl (centres unmarked) [Example 10.1, 3-[(3,5-Diamino-6-chloro-pyrazine-2-carbonyl)-amino]-1,1-bis-[2-(1H-indol-3-yl)-ethyl]-piperidinium chloride]",–
0.023 µM,COCCN(CCOC)C(=O)COc1ccc(CCC[N+]2(CCCc3ccc(OCC(=O)N(CCOC)CCOC)cc3)CCC[C@H](NC(=O)c3nc(Cl)c(N)nc3N)C2)cc1 [Example 6.21],–
0.045 µM,CN(C)CCNC(=O)COc1ccc(CCC[N+]2(CCCc3ccc(OCC(=O)NCCN(C)C)cc3)CCC[C@H](NC(=O)c3nc(Cl)c(N)nc3N)C2)cc1 [Example 6.14],–
0.041 µM,CN(C)CCCN(C)C(=O)COc1ccc(CCC[N+]2(CCCc3ccc(OCC(=O)N(C)CCCN(C)C)cc3)CCCC(NC(=O)c3nc(Cl)c(N)nc3N)C2)cc1 (centres unmarked) [Example 6.8],–
0.094 µM,CN(CC#N)C(=O)COc1ccc(CCC[N+]2(CCCc3ccc(OCC(=O)N(C)CC#N)cc3)CCC[C@H](NC(=O)c3nc(Cl)c(N)nc3N)C2)cc1 [Example 6.65],–
0.2 µM,COc1ccc(CCC[N+]2(CCCc3ccc(OC)cc3)CC(NC(=O)c3nc(Cl)c(N)nc3N)[C@H](c3ccc(C)cc3)C2)cc1 (some centres unmarked) [Example 1.2],–
0.011 µM,CN1CCOC(CNC(=O)COc2ccc(CCC[N+]3(CCCc4ccc(OCC(=O)NCC5CN(C)CCO5)cc4)CCC[C@H](NC(=O)c4nc(Cl)c(N)nc4N)C3)cc2)C1 (some centres unmarked) [Example 6.47],–
0.209 µM,Nc1nc(N)c(C(=O)N[C@H]2CCC[N+](CCCc3ccc(OCC(=O)N4CC[S+]([O-])CC4)cc3)(CCCc3ccc(OCC(=O)N4CC[S+]([O-])CC4)cc3)C2)nc1Cl [Example 6.30],–
0.015 µM,"Nc1nc(N)c(C(=O)NC2CCC[N+](CCCc3ccccc3)(CCCc3ccccc3)C2)nc1Cl (centres unmarked) [Example 10.4, 3-[(3,5-Diamino-6-chloro-pyrazine-2-carbonyl)-amino]-1,1-bis-(3-phenyl-propyl)-piperidinium chloride]",–
0.08 µM,COc1ccc(CCC[N+](C)(CCCc2ccc(OC)cc2)[C@@H]2C[C@H]2NC(=O)c2nc(Cl)c(N)nc2N)cc1 [Example 2.1],–
–,"COC(=O)COc1cccc(CCC[N+]2(CCCc3cccc(OCC(=O)OC)c3)CCC[C@H](NC(=O)c3nc(Cl)c(N)nc3N)C2)c1 [Example 10.10, (S)-3-[(3,5-Diamino-6-chloro-pyrazine-2-carbonyl)-amino]-1,1-bis-[3-(3-methoxycarbonylmethoxy-phenyl)-propyl]-piperidinium chloride]",IC50 [2]: 0.025 µM
0.005 µM,Nc1nc(N)c(C(=O)N[C@H]2CCC[N+](CCCc3ccc(OCC(=O)NCCc4cccnc4)cc3)(CCCc3ccc(OCC(=O)NCCc4cccnc4)cc3)C2)nc1Cl [Example 6.51],–
–,"Nc1nc(N)c(C(=O)NC2CCC[N+](CCCc3ccc(OCCOCCOCCOCCOCCO)cc3)(CCCc3ccc(OCCOCCOCCOCCOCCO)cc3)C2)nc1Cl (centres unmarked) [Example 9.1, 3-[(3,5-Diamino-6-chloro-pyrazine-2-carbonyl)-amino]-1,1-bis-(3-{4-[2-(2-{2-[2-(2-hydroxy-ethoxy)-ethoxy]-ethoxy}-ethoxy)-ethoxy]-phenyl}-propyl)-piperidinium chloride]",IC50 (unit inferred): 0.111 µM
0.065 µM,CN(C)CCN(C)C(=O)COc1ccc(CCC[N+]2(CCCc3ccc(OCC(=O)N(C)CCN(C)C)cc3)CCCC(NC(=O)c3nc(Cl)c(N)nc3N)C2)cc1 (centres unmarked) [Example 6.9],–
–,"COC(=O)c1ccc(CCC[N+]2(CCCc3ccc(C(=O)OC)cc3)CCCC(NC(=O)c3nc(Cl)c(N)nc3N)C2)cc1 (centres unmarked) [Example 4, 3-[(3,5-Diamino-6-chloro-pyrazine-2-carbonyl)-amino]-1,1-bis-[3-(4-methoxycarbonylphenyl)-propyl]-piperidinium chloride]",IC50 [2]: 0.34 µM
0.099 µM,COc1ccc(CCC[N+]2(CCCC3CCCCC3)CCCC(NC(=O)c3nc(Cl)c(N)nc3N)C2)cc1 (centres unmarked) [Example 3.3],–
0.012 µM,COCCNC(=O)COc1ccc(CCC[N+]2(CCCc3ccc(OCC(=O)NCCOC)cc3)CCC[C@H](NC(=O)c3nc(Cl)c(N)nc3N)C2)cc1 [Example 6.59],–
0.018 µM,CN(Cc1ccccn1)C(=O)COc1ccc(CCC[N+]2(CCCc3ccc(OCC(=O)N(C)Cc4ccccn4)cc3)CCC[C@H](NC(=O)c3nc(Cl)c(N)nc3N)C2)cc1 [Example 6.22],–
